How the values were obtained:
[1] = molecular target: Tyrosine-protein kinase Lck (Homo sapiens, UniProt P06239); test: Inhibition of Lck by HTRF assay
[2] = molecular target: T1, Tyrosine-protein kinase JAK3 (Homo sapiens, UniProt P52333); test: Inhibition of Jak3
T1 sequence (P52333 whole entry): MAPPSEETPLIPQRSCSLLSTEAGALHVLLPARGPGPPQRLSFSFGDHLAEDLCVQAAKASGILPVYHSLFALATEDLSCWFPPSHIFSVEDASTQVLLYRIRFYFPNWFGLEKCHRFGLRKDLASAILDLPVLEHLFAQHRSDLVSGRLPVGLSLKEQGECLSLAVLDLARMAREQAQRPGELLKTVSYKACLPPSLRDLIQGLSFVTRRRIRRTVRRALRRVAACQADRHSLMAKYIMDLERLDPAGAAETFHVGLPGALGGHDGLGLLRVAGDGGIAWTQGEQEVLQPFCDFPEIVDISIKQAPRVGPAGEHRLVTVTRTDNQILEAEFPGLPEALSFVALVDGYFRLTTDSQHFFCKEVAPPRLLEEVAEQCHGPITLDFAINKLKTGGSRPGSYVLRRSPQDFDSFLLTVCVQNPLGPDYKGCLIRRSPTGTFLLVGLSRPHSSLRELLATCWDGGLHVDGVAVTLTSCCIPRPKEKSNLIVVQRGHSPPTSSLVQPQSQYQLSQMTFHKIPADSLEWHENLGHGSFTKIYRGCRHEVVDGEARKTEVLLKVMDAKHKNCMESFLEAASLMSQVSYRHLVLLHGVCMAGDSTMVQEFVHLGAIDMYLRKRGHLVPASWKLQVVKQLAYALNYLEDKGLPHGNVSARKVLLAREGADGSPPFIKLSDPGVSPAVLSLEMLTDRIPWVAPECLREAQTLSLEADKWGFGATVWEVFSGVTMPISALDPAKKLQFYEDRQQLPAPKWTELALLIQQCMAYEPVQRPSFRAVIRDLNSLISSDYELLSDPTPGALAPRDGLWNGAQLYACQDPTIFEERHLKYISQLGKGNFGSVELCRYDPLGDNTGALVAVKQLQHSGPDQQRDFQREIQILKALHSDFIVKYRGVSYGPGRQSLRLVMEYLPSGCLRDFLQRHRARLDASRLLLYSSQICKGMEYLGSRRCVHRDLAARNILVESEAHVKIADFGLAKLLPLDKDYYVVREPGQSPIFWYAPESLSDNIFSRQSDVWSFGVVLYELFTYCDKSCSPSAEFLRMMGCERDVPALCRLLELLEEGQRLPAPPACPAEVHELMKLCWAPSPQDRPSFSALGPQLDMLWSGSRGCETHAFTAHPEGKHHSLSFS

Angiopoietin-1 receptor = Angiopoietin-1 receptor (Homo sapiens, UniProt Q02763); test: Inhibition of Tie2
[3] = molecular target: Vascular endothelial growth factor receptor 2 (Homo sapiens, UniProt P35968); test: Inhibition of KDR
T-cell = test: Inhibition of T cell activation in human mixed lymphocyte reaction; type: functional, cell-based
[4] = molecular target: Mitogen-activated protein kinase 14 (Homo sapiens, UniProt Q16539); test: Inhibition of p38alpha
Sequence of Mitogen-activated protein kinase 14 (Q16539 whole entry): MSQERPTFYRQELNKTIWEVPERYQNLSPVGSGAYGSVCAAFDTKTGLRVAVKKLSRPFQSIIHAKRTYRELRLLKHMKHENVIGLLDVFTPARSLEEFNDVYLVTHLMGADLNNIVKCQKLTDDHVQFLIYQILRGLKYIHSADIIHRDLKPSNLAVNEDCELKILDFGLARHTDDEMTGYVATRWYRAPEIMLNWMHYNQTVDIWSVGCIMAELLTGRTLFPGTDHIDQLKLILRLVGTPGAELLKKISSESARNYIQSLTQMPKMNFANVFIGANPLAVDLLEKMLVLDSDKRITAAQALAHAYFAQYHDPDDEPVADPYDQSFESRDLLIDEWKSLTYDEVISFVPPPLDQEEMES

Sequence of Tyrosine-protein kinase Lck (P06239 whole entry): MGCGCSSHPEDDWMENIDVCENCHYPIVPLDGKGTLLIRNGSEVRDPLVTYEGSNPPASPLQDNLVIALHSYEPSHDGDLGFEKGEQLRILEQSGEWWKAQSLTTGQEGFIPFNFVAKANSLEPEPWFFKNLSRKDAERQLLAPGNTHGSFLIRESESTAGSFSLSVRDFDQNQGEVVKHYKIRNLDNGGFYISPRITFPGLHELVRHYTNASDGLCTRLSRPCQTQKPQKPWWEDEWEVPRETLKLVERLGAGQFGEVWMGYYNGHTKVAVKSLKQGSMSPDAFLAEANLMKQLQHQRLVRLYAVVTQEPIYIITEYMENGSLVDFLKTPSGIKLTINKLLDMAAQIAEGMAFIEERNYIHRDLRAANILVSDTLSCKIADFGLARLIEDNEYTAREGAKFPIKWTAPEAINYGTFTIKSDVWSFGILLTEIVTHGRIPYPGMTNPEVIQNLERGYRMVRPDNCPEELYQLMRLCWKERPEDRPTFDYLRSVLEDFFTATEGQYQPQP
Sequence of Angiopoietin-1 receptor (Q02763 whole entry): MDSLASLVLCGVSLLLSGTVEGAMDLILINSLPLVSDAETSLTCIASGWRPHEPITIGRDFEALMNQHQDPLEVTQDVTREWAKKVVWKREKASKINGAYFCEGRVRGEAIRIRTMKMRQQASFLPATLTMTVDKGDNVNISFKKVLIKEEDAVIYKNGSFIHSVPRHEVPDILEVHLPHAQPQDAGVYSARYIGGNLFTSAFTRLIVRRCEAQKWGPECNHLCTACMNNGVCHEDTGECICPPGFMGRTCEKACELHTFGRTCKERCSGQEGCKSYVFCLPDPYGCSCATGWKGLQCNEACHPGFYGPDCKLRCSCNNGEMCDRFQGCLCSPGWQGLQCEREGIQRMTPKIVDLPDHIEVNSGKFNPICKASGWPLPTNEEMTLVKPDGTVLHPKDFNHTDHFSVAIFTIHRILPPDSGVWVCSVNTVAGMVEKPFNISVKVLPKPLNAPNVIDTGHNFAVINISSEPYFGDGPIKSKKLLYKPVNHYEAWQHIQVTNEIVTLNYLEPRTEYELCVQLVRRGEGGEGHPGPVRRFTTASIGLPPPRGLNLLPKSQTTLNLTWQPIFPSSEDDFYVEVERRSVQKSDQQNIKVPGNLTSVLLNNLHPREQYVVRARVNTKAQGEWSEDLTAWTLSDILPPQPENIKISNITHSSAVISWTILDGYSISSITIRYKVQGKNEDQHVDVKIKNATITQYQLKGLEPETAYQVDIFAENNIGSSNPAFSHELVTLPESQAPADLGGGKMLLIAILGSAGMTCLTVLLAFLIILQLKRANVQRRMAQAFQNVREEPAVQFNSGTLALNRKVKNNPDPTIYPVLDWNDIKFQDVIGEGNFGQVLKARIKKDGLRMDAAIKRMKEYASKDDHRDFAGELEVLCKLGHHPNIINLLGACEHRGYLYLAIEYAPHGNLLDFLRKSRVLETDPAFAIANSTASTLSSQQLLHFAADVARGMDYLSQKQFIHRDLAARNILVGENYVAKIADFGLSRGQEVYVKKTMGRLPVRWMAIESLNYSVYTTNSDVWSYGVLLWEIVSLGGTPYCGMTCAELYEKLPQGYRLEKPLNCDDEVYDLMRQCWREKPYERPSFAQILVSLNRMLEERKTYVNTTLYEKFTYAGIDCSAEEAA
Sequence of Vascular endothelial growth factor receptor 2 (P35968 whole entry): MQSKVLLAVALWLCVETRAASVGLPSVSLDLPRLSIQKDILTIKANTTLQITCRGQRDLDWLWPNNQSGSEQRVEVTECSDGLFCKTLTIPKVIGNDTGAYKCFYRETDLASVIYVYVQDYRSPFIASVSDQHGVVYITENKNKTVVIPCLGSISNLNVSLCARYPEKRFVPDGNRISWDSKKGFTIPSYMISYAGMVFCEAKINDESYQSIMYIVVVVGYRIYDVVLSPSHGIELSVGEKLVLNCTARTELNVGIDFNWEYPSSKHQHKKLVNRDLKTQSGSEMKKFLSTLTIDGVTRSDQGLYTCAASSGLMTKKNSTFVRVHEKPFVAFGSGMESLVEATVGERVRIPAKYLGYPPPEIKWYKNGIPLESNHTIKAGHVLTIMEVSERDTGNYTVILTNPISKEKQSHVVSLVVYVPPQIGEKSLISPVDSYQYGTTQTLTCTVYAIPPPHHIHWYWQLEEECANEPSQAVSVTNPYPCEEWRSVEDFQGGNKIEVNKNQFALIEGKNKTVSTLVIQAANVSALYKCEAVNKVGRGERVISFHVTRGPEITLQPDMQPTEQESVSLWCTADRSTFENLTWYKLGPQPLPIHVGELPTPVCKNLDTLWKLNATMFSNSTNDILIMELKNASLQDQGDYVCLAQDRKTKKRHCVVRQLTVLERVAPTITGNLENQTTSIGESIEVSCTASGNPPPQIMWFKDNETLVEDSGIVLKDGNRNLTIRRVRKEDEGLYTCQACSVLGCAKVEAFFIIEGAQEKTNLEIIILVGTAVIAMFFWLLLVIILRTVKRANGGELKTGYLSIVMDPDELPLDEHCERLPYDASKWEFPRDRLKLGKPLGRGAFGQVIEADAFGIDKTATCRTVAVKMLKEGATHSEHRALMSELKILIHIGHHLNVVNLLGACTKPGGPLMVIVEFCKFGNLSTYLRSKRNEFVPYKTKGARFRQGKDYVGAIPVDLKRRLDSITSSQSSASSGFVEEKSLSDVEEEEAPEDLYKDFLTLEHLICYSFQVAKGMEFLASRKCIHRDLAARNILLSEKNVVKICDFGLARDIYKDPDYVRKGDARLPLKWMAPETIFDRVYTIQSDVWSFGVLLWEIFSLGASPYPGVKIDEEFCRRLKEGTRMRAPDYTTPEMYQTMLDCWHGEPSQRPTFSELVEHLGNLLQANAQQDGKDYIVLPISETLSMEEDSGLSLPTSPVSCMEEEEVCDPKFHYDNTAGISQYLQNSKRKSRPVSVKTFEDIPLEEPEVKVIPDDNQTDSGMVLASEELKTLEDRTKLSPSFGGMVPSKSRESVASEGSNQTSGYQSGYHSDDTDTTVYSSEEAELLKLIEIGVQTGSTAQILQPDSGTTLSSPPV

Compound | IC50 [1] [µM] | IC50 [2] [µM] | IC50 (Angiopoietin-1 receptor) [µM] | IC50 [3] [µM] | IC50 (T-cell) [µM] | IC50 [4] [µM]
COc1nc(NC2CCN(C)CC2)ncc1C(=O)Nc1cc(C(=O)Nc2cccc(C(F)(F)F)c2)ccc1C | 0.101 | > 25 | > 25 | > 25 |  | 
Cc1ccc(C(=O)Nc2cccc(C(F)(F)F)c2)cc1NC(=O)c1cnc(NCCN2CCOCC2)nc1Oc1ccccc1 | 0.041 | > 25 | > 25 | > 25 | > 10 | 
CNc1ncc(C(=O)Nc2cc(C(=O)Nc3cccc(C(F)(F)F)c3C)ccc2C)c(OC)n1 | 0.044 | > 25 | > 25 | > 25 | > 10 | > 10
COc1nc(Nc2ccc(N3CCN(C)CC3)cc2)ncc1C(=O)Nc1cc(C(=O)Nc2cccc(C(F)(F)F)c2F)ccc1C | 0.0006 | 0.334 | 3.44 | 0.255 | 0.107 | 0.856
COc1nc(NCCCN2CCN(C)CC2)ncc1C(=O)Nc1cc(C(=O)Nc2cccc(C(F)(F)F)c2C)ccc1C | 0.019 | > 25 | > 25 | > 25 | 2.71 | 
Cc1ccc(C(=O)Nc2cccc(C(F)(F)F)c2)cc1-c1ccc2nc(N)ncc2c1 |  |  | 0.002 |  |  | 
CNc1ncc(C(=O)Nc2cc(C(=O)Nc3cccc(C(F)(F)F)c3F)ccc2C)c(OC)n1 | 0.007 | > 25 | > 25 | > 25 | > 10 | 0.254
COc1nc(NCCCCN(C)C)ncc1C(=O)Nc1cc(C(=O)Nc2cccc(C(F)(F)F)c2C)ccc1C | 0.045 | > 25 | > 25 | > 25 |  | 
CNc1ncc(C(=O)Nc2cc(C(=O)Nc3cccc(C(F)(F)F)c3)ccc2C)c(OC)n1 | 0.053 | > 25 | > 25 | 8.33 | > 10 | 2.72
CNc1ncc(C(=O)Nc2cc(C(=O)Nc3cccc(C(F)(F)F)c3F)ccc2C)c(NC)n1 | 0.084 | > 25 | > 25 | 6.68 |  | 0.0024
CNc1ncc(C(=O)Nc2cc(C(=O)Nc3cccc(C(F)(F)F)c3)ccc2C)c(Oc2ccccc2)n1 | 0.025 | > 25 | > 25 | > 25 | > 10 | 
COc1nc(NCCN2CCOCC2)ncc1C(=O)Nc1cc(C(=O)Nc2cccc(C(F)(F)F)c2)ccc1C | 0.022 | > 25 | > 25 | 2.03 | 4.92 | 
